Source: patent US6627580B2, “Chelating agents and their manganic chelates” (Akzo Nobel N.V., priority 1997, dated 2003)
One block for each compound: values may come before it.

Assays:
[1] = Ahrland et al. 1990, cited from earlier work
[2] = Preference of the new chelant for manganic ions over ferric ions (citrate solutions, pH 7.8); assay type: physicochemical; settings: for colour developed: pH 7.8
Experimental: In order to show the preference of the new chelants for manganic ions over ferric ions, stable, slightly alkaline solutions of these ions were prepared by chelation with two moies of citric acid. Both solutions were adjusted with sodium hydroxide to a pH of 7.8 at a concentration of 0.001 mmole/ml of manganese and iron, respectively. Three experiments were made for comparison:
a) of each solution 10 ml (0.01 mmole) was mixed, and 0.25 g of the 0.04 molar chelate (or ligand) solution from. Example 1 […] was added.
b) 10 ml of manganic citrate solution was mixed with 0.25 g of the chelate solution.
c) 10 ml of the ferric citrate solution was mixed with 0.25 g of the chelate solution.

[3] = Soil tests with the new manganic chelate and other manganese sources; assay type: physicochemical
Experimental: A soil sample was taken from a sugar-beet field in Helsingborg, Sweden. It was sifted and homogenised and analysed by a certified agricultural laboratory by so-called ICP after extraction with dilute acetic of EDTA.
35 g portions of the slightly moist soil were transferred to 250 ml glass bottles together with 120 ml of dilute solutions containing about 30 ppm manganese. The solutions to be tested were made from:
The bottles were rotated in a tumbling device at about 1 revolution per second for a period of 19 days. […] The clear liquid samples were analysed by ICP.

[4] = Hydrolytic stability of the new manganic chelate (step-wise alkalisation with dilute sodium hydroxide); assay type: physicochemical
From the text: The manganic chelate solution from Example 2 was alkalised step-wise with dilute sodium hydroxide. Samples were taken at various pH and set aside for later inspection.

[5] = Shaking test with calcium carbonate; assay type: physicochemical
From the text: The test in Example 6 was repeated with the new manganic chelate but with analytical grade calcium carbonate instead of soil. The pH of the suspension was 8.5.

[6] = Comparative test with a reduced chelant (manganic chelate of borohydride-reduced chelant); assay type: physicochemical
Experimental: A solution of the chelant according to Example 1 was adjusted to a concentration of 10 mmoles/L and a pH of 5. Sodium borohydride was added at 5 minute intervals until the yellow salicylimine colour disappeared. The pH was then adjusted to 8, and the manganic chelate was generated as described in Example 2 for a final pH of 8.

[7] = Formation and hydrolytic stability of a ferric chelate; assay type: physicochemical; settings: for Appearance of ferric chelate solution: colour observed during the next 1-2 hours
Experimental: 2 ml of the chelate solution from Example 1 (0.08 mmole) was diluted with 15 ml water and 1 ml of 0.05 molar ferric chloride solution was added dropwise. The pH was brought to 7 with dilute sodium hydroxide, giving a dark wine red solution. The solution was then gradually alkalised by the addition of dilute sodium hydroxide, and the colour was observed during the next 1-2 hours.

[8] = pH stability of manganic and ferric chelates of the tropolone chelant; assay type: physicochemical
Experimental: The manganic chelate of the new chelant was prepared in analogy with Example 2 and formed a brown solution stable at pH 10.
With ferric iron ions the chelant formed a red solution at pH 5. On raising the pH the red colour started to fade at pH 7-8.

[9] = Tropolone chelant with molar equivalents of manganic and ferric ions; assay type: physicochemical; settings: pH 9
[10] = b) manganic citrate solution only
[11] = c) ferric citrate solution only

Structure (SMILES): O=C(O)C(NCCNC(C(=O)O)c1ccccc1O)c1ccccc1O (stereo not drawn) [EDDHA, ethylenediamine-di-2-hydroxyphenylacetic acid]
pKa for hydrolysis of ferric chelate ([1]; ferric chelate): 12.7

Structure (SMILES): O=C(O)CC(N=Cc1ccccc1O)C(CC(=O)O)N=Cc1ccccc1O (stereo not drawn) [Example 1]
stability of the yellow colour ([2]; a) manganic citrate + ferric citrate solutions): stable for weeks | colour developed ([2]; a) manganic citrate + ferric citrate solutions (0.01 mmole each)): yellow ochre colour | stability of the yellow colour [2, 10]: stable for weeks | colour developed [2, 10]: yellow ochre colour | time until solution turned completely red [2, 11]: about one hour | colour developed [2, 11]: red colour | selectivity between ferric and manganic ions ([2]; near neutral pH, yellow colour stable for at least several weeks): remarkable preference for manganic ion

Structure (SMILES): O=C(O)C(NCCNC(C(=O)O)c1ccccc1O)c1ccccc1O.[Mn+3] (stereo not drawn) [manganic EDDHA, reference compound]
time to colour change of centrifuged sample from brownish to red (manganese replaced by ferric iron) ([3]; soil test): ≤ 1 days | pKa for hydrolysis of manganic chelate ([1]; manganic chelate): 9.3

Now from value to compound, other results behind:

soluble manganese retained, of its original content ([3]; after 19 days with soil of low manganese, high iron content): about 50% | time to visible colour change of centrifuged sample to orange yellow ([3]; soil test): after a week | pH up to which the manganic chelate forms stable solutions / is stable to hydrolysis ([4]; manganic chelate): at least 10.5 | appearance of manganic chelate solution ([4]; pH 8, after 1 h): clear, | appearance of manganic chelate solution ([4]; pH 8, after 24 hours): clear, same colour | appearance of manganic chelate solution ([4]; pH 8, after 5 days): clear, | appearance of manganic chelate solution ([4]; pH 8, immediately): clear ochre | appearance of manganic chelate solution ([4]; pH 9, after 1 h): clear, | appearance of manganic chelate solution ([4]; pH 9, after 24 hours): clear, same colour | appearance of manganic chelate solution ([4]; pH 9, after 5 days): clear, | appearance of manganic chelate solution ([4]; pH 9, immediately): clear, same colour | appearance of manganic chelate solution ([4]; pH 10.5, after 1 h): clear, | appearance of manganic chelate solution ([4]; pH 10.5, after 24 hours): clear, same colour | appearance of manganic chelate solution ([4]; pH 10.5, after 5 days): clear, | appearance of manganic chelate solution ([4]; pH 10.5, immediately): clear, same colour | appearance of manganic chelate solution ([4]; pH 11, after 1 h): clear, | appearance of manganic chelate solution ([4]; pH 11, after 24 hours): slight precipitate | appearance of manganic chelate solution ([4]; pH 11, after 5 days): slight | appearance of manganic chelate solution ([4]; pH 11, immediately): clear, same colour | appearance of manganic chelate solution ([4]; pH 11.3, after 1 h): precipitation | appearance of manganic chelate solution ([4]; pH 11.3, after 24 hours): considerable dark | appearance of manganic chelate solution ([4]; pH 11.3, after 5 days): as before | appearance of manganic chelate solution ([4]; pH 11.3, immediately): clear, same colour | manganese content in the liquid phase ([5]; calcium carbonate suspension, pH 8.5, remained constant for several weeks): 30 ppm | colour of liquid phase ([5]; calcium carbonate suspension, pH 8.5, several weeks): remained the same yellow ochre | solubility in shaking test with calcium carbonate ([5]; for at least several weeks): completely soluble | hydrolytic stability ([5]; pH 8.5 in the presence of calcium): excellent hydrolytic stability
Structure (SMILES): O=C([O-])CC(N=Cc1ccccc1[O-])C(CC(=O)[O-])N=Cc1ccccc1[O-].[Mn+3] (stereo not drawn) [Example 2]

stability to hydrolysis of manganic chelate of reduced chelant [6]: very unstable to hydrolysis | result on generating the manganic chelate ([6]; final pH of 8): immediate dark precipitate | manganese dioxide precipitation ([6]; neutral pH): started to precipitate immediately
Structure (SMILES): O=C([O-])CC(NCc1ccccc1[O-])C(CC(=O)[O-])NCc1ccccc1[O-].[Mn+3] (stereo not drawn) [Example 4]

pH at which the ferric chelate starts to hydrolyse [7]: 9 | Appearance of ferric chelate solution ([7]; pH 7): Wine red | Appearance of ferric chelate solution ([7]; pH 8): Wine red | Appearance of ferric chelate solution ([7]; pH 9): Slightly lighter wine red | Appearance of ferric chelate solution ([7]; pH 10): Lighter wine red | Appearance of ferric chelate solution ([7]; pH 11): Much lighter wine red
Structure (SMILES): O=C([O-])CC(N=Cc1ccccc1[O-])C(CC(=O)[O-])N=Cc1ccccc1[O-].[Fe+3] (stereo not drawn) [Example 5]

pH at which the red colour started to fade ([8]; ferric chelate, on raising the pH): 7-8 | appearance with ferric iron ions ([8]; ferric chelate, pH 5): red solution | stability of manganic chelate solution (brown) ([8]; manganic chelate, pH 10): stable | colour with molar equivalents of both manganic and ferric ions (indicating preference for manganic ions) [9]: stable brown colour
Structure (SMILES): O=C(O)CC(N=c1cccccc1O)C(CC(=O)O)N=c1cccccc1O (stereo not drawn) [Example 9]
appearance with ferric iron ions ([8]; ferric chelate, pH 10): turned yellow, with precipitation of the ferric hydroxide
